Experimental data published in patent publication US20050043379A1, “LTA4H Modulators” (priority 2003, published 2005).
Counter-ions that a name gives are not always drawn.

system: neutrophil influx (myeloperoxidase activity) in arachidonic acid-treated ear; assay: Murine arachidonic acid-induced inflammation model: neutrophil influx by myeloperoxidase (MPO) activity in ear biopsies; assay type: in vivo, mouse (female Balb/c); details: Mus musculus, TABLE 7, 30 mg/kg oral gavage, ear biopsies 3 h after topical arachidonic acid (given 60 min after dose), read-out: % Inh. MPO
Description: Murine Arachidonic Acid-induced Inflammation Model LTA4H inhibitor compounds of the present invention were dissolved in 20% cyclodextran/H2O at a concentration of 3 mg/mL. The solutions were administered by oral gavage to female Balb/c mice weighing approximately 20 grams each (0.2 mL per mouse, 30 mg of LTA4H inhibitor compound per kg). Sixty minutes after being administered an LTA4 inhibitor, each mouse received topical application of 20 μL of arachidonic acid (100 mg/mL in acetone) to the left ear and 20 μL of acetone only to the right ear. After 3 h, the mice were sacrificed, blood was withdrawn in heparinized syringes, and 8 mm ear biopsies were taken. Ear biopsies were weighed to determine edema and then frozen at -80° C. until needed for determination of neutrophil influx. Neutrophil influx was quantified by measuring the activity of myeloperoxidase (MPO), a neutrophil-specific enzyme. […] Debris was removed by centrifugation at 14000×g for 10 min. […] The microtiter plate contents were held at room temperature for 1 h. The reaction was stopped by addition of 100 μ[…] H2SO4 to each sample well, and the myeloperoxidase activity in each sample was determined from the absorbance at 405 nm. The background value from the right ear, treated only with acetone, was subtracted from that for the left ear, treated with arachidonic acid in acetone, for each animal. The percent inhibition of neutrophil influx (% Inh. MPO) by compounds of the invention was determined by comparison to animals treated identically, except that the solution administered by oral gavage was devoid of inhibitor compound.

Q: For c1ccc2oc(Oc3ccc(OCCN4CCCCC4)cc3)nc2c1 [Example 11, 2-[4-(2-Piperidin-1-yl-ethoxy)-phenoxy]-benzooxazole], which inhibition at 30 mg/kg is on record?
A: 95%

Q: For OC1CCN(CCOc2ccc(Oc3nc4ccccc4o3)cc2)CC1 [Example 14, 1-{2-[4-(Benzooxazol-2-yloxy)-phenoxy]-ethyl}-piperidin-4-ol], which inhibition at 30 mg/kg is on record?
A: 56%

Q: Which inhibition at 30 mg/kg does the source give for OC1(c2ccccc2)CCN(CCCOc2ccc(Oc3nc4ccccc4o3)cc2)CC1 [Example 27, 1-{3-[4-(Benzooxazol-2-yloxy)-phenoxy]-propyl}-4-phenyl-piperidin-4-ol] here?
A: 72%

same assay, conditions: Mus musculus, TABLE 8, 30 mg/kg oral gavage, ear biopsies 3 h after topical arachidonic acid (given 60 min after dose), read-out: % Inh. MPO

Q: For O=C(O)C1CCN(CCc2ccc(Oc3nc4ccccc4s3)cc2)CC1 [Example 150, 1-{2-[4-(Benzothiazol-2-yloxy)-phenyl]-ethyl}-piperidine-4-carboxylic acid], which inhibition at 30 mg/kg is on record?
A: 91%

Q: Which inhibition at 30 mg/kg does the source give for O=C(O)C1CCCN(CCc2ccc(Oc3nc4ccccc4s3)cc2)C1 (stereo not drawn) [Example 155, 1-{2-[4-(Benzothiazol-2-yloxy)-phenyl]-ethyl}-piperidine-3-carboxylic acid] here?
A: 93%

Q: For c1ccc2sc(Oc3ccc(OCCn4nnnc4C4CCNCC4)cc3)nc2c1 [Example 206, 2-{4-[2-(5-Piperidin-4-yl-tetrazol-1-yl)-ethoxy]-phenoxy}-benzothiazole], which inhibition at 30 mg/kg is on record?
A: 76%

Q: Which inhibition at 30 mg/kg does the source give for O=C(O)C1CCN(Cc2ccc(Oc3nc4ccccc4s3)cc2)CC1 [Example 250, 1-[4-(Benzothiazol-2-yloxy)-benzyl]-piperidine-4-carboxylic acid] here?
A: 94%

Q: Which inhibition at 30 mg/kg does the source give for OCC1CCCCN1CCOc1ccc(Oc2nc3ccccc3s2)cc1 (stereo not drawn) [Example 263, (1-{2-[4-(Benzothiazol-2-yloxy)-phenoxy]-ethyl}-piperidin-2-yl)-methanol] here?
A: 19%

Q: With NC(=O)C1CCN(Cc2ccc(Oc3nc4ccccc4s3)cc2)CC1 [Example 274, 1-[4-(Benzothiazol-2-yloxy)-benzyl]-piperidine-4-carboxylic acid amide] as the compound, how does the inhibition at 30 mg/kg read?
A: 87%

Q: With O=C(CO)N1CCN(CCc2ccc(Oc3nc4ccccc4s3)cc2)CC1 [Example 325, 1-(4-{2-[4-(Benzothiazol-2-yloxy)-phenyl]-ethyl}-piperazin-1-yl)-2-hydroxy-ethanone] as the compound, how does the inhibition at 30 mg/kg read?
A: 67%

Q: Which inhibition at 30 mg/kg does the source give for O=C1C[C@H](O)CN1C1CCN(CCc2ccc(Oc3nc4ccccc4s3)cc2)CC1 [Example 336, (S)-1-(1-{2-[4-(Benzothiazol-2-yloxy)-phenyl]-ethyl}-piperidin-4-yl)-4-hydroxy-pyrrolidin-2-one] here?
A: 0%

Q: For CS(=O)(=O)NC1CCN(Cc2ccc(Oc3nc4ccccc4s3)cc2)CC1 [Example 361, N-{1-[4-(Benzothiazol-2-yloxy)-benzyl]-piperidin-4-yl}-methanesulfonamide], which inhibition at 30 mg/kg is on record?
A: 90%

Q: For O=C1C[C@@H](O)CN1C1CCN(Cc2ccc(Oc3nc4ccccc4s3)cc2)CC1 [Example 446, 1-{1-[4-(Benzothiazol-2-yloxy)-benzyl]-piperidin-4-yl}-4-hydroxy-pyrrolidin-2-one], which inhibition at 30 mg/kg is on record?
A: 43%

Q: With O=C1C[C@H](O)CN1C1CCN(Cc2ccc(Oc3nc4ccccc4s3)cc2)CC1 [Example 447, 1-{1-[4-(Benzothiazol-2-yloxy)-benzyl]-piperidin-4-yl}-4-hydroxy-pyrrolidin-2-one] as the compound, how does the inhibition at 30 mg/kg read?
A: 48%

same assay, conditions: Mus musculus, po, read-out: % Inh. MPO

Q: For O=C(O)C1CCN(CCOc2ccc(Oc3nc4ccccc4s3)cc2)CC1 [Example 18, 1-{2-[4-(Benzothiazol-2-yloxy)-phenoxy]-ethyl}-piperidine-4-carboxylic acid potassium salt], which inhibition at 30 mg/kg is on record?
A: 83%

system: ionophore-induced LTB4 production; assay: not given; details: oral administration; cited from earlier work

Q: For CN(CCCOc1ccc(Cc2ccccc2)cc1)CCC(=O)O.Cl [SC57461], which “inhibition of ionophore-induced LTB4 production in mouse blood ex vivo” value is on record?
A: caused inhibition of ionophore-induced LTB4 production

system: ionophore-induced LTB4 production; assay: not given; details: oral administration; cited from earlier work; remark: another data set of the same source

Q: For CN(CCCOc1ccc(Cc2ccccc2)cc1)CCC(=O)O.Cl [SC57461], which “inhibition of ionophore-induced LTB4 production in rat peritoneum in vivo” value is on record?
A: caused inhibition of ionophore-induced LTB4 production

system: colitis symptoms; assay: not given; details: eight weeks of treatment; cited from earlier work

Q: Which colitis symptoms does the source give for CN(CCCOc1ccc(Cc2ccccc2)cc1)CCC(=O)O.Cl [SC57461] here?
A: significantly improved colitis symptoms
